Results on 15 molecules are retold here after US6039950A, “Pharmaceutical grade saw palmetto” (priority 1997, dated 2000).

“And” between values parts separate entries of the source, which are not always exact repeats. Equal values may be shown once. Read-outs that look alike come from different tables or passages of the source.

One assay deals with smooth muscle. Particulars: cited from earlier work.
The next assay addresses T1, Cyclooxygenase-2 (Ovis aries, UniProt P79208).
T1 construct: Cyclooxygenase-2 (from sheep placenta); from tissue; host or cells: sheep placenta; assay by Panlabs
As to the kind of experiment: biochemical. Format: biochemical, sheep. The protocol:
The reaction is initiated by addition of arachidonic acid (100 mM) and terminated after 20 minutes incubation at 37° C. by addition of TCA.

The target in the next assay is T2, 5-lipoxygenase (Rattus norvegicus, UniProt P12527).
T2 sequence (P12527 1-673): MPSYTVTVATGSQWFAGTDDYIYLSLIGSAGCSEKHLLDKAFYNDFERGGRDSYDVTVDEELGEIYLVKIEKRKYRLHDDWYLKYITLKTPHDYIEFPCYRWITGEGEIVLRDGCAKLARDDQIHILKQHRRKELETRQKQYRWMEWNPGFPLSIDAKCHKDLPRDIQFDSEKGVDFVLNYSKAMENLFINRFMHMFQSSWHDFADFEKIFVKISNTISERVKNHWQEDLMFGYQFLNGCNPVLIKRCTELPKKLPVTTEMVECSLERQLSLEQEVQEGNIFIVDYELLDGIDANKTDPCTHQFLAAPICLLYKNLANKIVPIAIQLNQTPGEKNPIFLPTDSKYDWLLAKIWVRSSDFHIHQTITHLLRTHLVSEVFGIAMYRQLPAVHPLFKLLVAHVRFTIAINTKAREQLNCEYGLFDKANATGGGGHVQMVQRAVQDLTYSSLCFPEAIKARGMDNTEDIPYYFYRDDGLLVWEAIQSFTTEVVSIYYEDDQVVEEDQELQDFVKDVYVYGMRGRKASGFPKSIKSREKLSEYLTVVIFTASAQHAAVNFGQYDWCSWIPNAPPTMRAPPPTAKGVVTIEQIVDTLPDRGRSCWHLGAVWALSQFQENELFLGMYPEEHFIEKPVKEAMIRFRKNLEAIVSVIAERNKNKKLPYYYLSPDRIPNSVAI
As to the kind of experiment: biochemical. To be noted: for 5-Lipo activity: screened at 3×10^-5 (30 μM).

Another assay deals with T3, Cyclooxygenase-1 (Ovis aries, UniProt P05979).
T3 construct: Cyclooxygenase-1 (from ram seminal vesicles); from tissue; host or cells: ram seminal vesicles; assay by Panlabs
T3 sequence (P05979 25-600): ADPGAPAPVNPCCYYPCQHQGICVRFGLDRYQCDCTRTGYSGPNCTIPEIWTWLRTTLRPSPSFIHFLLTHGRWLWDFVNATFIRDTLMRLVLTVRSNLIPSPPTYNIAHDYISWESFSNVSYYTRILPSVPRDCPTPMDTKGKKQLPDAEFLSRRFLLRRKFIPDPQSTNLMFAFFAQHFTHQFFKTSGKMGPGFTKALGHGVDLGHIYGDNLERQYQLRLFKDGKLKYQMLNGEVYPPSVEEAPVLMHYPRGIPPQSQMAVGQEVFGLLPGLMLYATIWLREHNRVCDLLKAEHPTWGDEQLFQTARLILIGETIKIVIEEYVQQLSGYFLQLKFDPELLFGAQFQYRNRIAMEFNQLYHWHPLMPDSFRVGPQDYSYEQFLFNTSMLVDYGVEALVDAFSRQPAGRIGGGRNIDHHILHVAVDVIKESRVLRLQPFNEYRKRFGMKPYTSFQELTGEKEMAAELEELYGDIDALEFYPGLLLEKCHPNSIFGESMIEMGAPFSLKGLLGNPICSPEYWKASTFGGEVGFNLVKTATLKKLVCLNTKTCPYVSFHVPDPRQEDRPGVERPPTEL
As to the kind of experiment: biochemical. Format: biochemical, ram. Particulars: for Cox1 activity: screened at 3×10^-4 M. The procedure: The reaction was initiated by addition of arachidonic acid (100 mM) and terminated after 20 minutes incubation at 37° C. by addition of trichloroacetic acid (TCA).

Assay [1] addresses T4, rat prostatic androgen receptor (Rattus norvegicus, UniProt P15207).
T4 construct: the ventral prostates were rapidly removed and placed in ice-cold "homogenization buffer"; from tissue; host or cells: washed nuclear suspension of ventral prostate from testosterone-treated male rats (Harlan)
T4 sequence (P15207 1-902): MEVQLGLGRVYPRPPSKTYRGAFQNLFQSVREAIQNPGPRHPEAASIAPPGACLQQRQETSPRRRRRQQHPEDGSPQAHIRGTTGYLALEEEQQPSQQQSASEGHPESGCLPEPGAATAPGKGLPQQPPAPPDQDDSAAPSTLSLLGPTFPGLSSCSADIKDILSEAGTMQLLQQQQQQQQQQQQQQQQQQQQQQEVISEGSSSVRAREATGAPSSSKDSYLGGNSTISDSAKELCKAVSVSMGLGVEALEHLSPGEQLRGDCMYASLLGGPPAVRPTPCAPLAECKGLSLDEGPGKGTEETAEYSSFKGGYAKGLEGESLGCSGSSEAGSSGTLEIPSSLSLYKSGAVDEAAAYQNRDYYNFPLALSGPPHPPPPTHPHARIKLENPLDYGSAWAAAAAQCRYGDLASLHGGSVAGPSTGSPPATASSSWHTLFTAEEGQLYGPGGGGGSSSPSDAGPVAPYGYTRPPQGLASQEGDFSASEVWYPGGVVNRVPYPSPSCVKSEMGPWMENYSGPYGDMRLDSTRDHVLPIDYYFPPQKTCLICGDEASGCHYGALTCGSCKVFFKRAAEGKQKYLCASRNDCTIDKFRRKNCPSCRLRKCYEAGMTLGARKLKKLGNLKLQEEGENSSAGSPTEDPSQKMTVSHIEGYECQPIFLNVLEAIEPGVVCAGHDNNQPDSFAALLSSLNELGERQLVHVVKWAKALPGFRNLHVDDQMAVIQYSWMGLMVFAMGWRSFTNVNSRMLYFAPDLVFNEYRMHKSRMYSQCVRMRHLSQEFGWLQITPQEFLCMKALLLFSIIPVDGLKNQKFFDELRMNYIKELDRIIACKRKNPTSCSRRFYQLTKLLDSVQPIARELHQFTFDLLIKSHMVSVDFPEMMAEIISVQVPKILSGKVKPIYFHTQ
The assay is described as follows: Rat prostatic nuclear androgen receptor binding assay against 3H-dihydrotestosterone. The procedure: Rats were fed with Purina chow and tap water, ad libitum.
General chemicals (reagent grade), free fatty acids, fatty acid ethyl esters and radioinert steroids were obtained from Sigma Chemical Company (St. Louis, Mo.). ^3 H-dihydrotestosterone (5α-androstan-17β-ol-3-one; 60 Ci/mmol) was purchased from NEN Life Science Products (Boston, Mass.). 100% ethanol was used throughout for the preparations of all inhibitors and radioinert chemicals.
The animals were treated intraperitoneally with testosterone (400 μg/100 g body wt). […] The homogenate was centrifuged at 800×g for 20 minutes at 4° C. […] The resuspended pellet was homogenized on ice using a glass Dounce homogenizer until suspension became uniform.
Non-specific binding was determined using radioinert dihydrotestosterone (10^-5 M) in place of the inhibitor. The test tubes were incubated for 20 hours at 15° C.
After an overnight incubation, 1 ml of ice-cold nuclear buffer was added followed by centrifugation at 800×g for 10 minutes at 4° C. The nuclear pellets were washed 3 times by resuspension in 1 ml of the same ice-cold nuclear buffer, with mixing and centrifugation as above. After discarding the final supernatant, 1 ml of 100% ethanol was added to each pellet and then vortexed. Test tubes were placed in a 30° C. water bath for 40 minutes, with vortexing every 10 minutes and a final centrifugation at 800 g for 10 minutes. The ethanol extracts were decanted into vials containing 4 ml of scintillation fluid (Ecoscint A), shaken and counted.
The results, expressed as percent inhibition of ^3 H-Dihydrotestosterone binding, at two concentrations of putative active components, of the rat prostatic androgen receptor assay are below.

[2] abbreviates: Table 8, read-out: Cyclooxygenase-1 IC50 (Table 8).
[3] abbreviates: Table 8, read-out: Cyclooxygenase-2 IC50 (Table 8).
Where [4] appears, read: Table 8, read-out: 5 Lipoxygenase IC50 (Table 8).

T1 sequence (P79208 17-603): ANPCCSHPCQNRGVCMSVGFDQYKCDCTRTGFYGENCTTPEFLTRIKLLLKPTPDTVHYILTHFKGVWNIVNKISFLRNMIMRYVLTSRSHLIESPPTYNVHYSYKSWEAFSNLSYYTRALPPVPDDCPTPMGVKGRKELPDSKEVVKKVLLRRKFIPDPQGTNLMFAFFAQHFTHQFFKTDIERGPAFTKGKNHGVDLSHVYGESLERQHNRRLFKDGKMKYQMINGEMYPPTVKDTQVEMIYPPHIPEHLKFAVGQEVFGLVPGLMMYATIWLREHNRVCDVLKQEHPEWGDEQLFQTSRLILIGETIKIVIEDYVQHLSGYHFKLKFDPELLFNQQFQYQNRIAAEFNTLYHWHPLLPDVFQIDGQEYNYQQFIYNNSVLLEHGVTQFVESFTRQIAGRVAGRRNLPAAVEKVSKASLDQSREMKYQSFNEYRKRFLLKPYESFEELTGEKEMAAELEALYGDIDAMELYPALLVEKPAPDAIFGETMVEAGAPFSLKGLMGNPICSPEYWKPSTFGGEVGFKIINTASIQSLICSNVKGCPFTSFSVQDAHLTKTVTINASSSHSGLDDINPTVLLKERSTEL
Protocol for 5-lipoxygenase: The procedure was as follows. 5-lipoxygenase assays were run using a crude enzyme preparation from rat basophilic leukemia cells (RBL-1). Test compounds were pre-incubated with the enzyme for 5 minutes at room temperature and the reaction was initiated by addition of substrate (arachidonic acid). Following an 8 minute incubation at room temperature, the reaction was terminated by addition of citric acid, and levels of 5-HETE were determined by 5-HETE radioimmunoassay (RIA).
Compounds and fractions were screened at an initial concentration of 3×10^-5.

With `C[C@@H]1C[C@@H]([C@H](O)CC2CC(=O)NC(=O)C2)C(=O)[C@@H](C)C1` [Cycloheximide], in the assay with smooth muscle, the “effect on relaxant effect of Sabal extracts” value (“effect on relaxant effect” below) is given as “antagonized”.
In the case of `CCCCCCCC/C=C\CCCCCCCC(=O)OCC` [Ethyl Oleate], on Cyclooxygenase-2, the Cox2 activity entry is “Negative” and the IC50 was more than 300 µM. Moreover, at 5-lipoxygenase, the IC50 was more than 30 µM and the 5-Lipo activity entry is listed as “Negative”. In addition, the IC50 on Cyclooxygenase-1 (setting [2]) was more than 300 µM. For the same molecule, the Cox1 activity entry at Cyclooxygenase-1 was “Negative”.
Turning to `CCCCCCCCCCCCCCCC(=O)OCC` [Ethyl Palmitate], the Cox2 activity entry on Cyclooxygenase-2 is listed as “Negative”. Further, the IC50 at Cyclooxygenase-2 (setting [3]) was more than 300 µM; at 5-lipoxygenase (setting [4]), more than 30 µM; at Cyclooxygenase-1 (setting [2]), more than 300 µM. In addition, on 5-lipoxygenase, the 5-Lipo activity result is given as “Negative”. On Cyclooxygenase-1, the Cox1 activity result is “Negative”.
Turning to `CCCCC/C=C\C/C=C\CCCCCCCC(=O)OCC` [Ethyl linoleate, ethyl linoleate], the Cox2 activity result at Cyclooxygenase-2 is given as “Negative”. The IC50 is more than 300 µM on Cyclooxygenase-2 (setting [3]), more than 30 µM at 5-lipoxygenase (setting [4]) and more than 300 µM on Cyclooxygenase-1 (setting [2]). For the same molecule, the 5-Lipo activity result at 5-lipoxygenase is reported as “Negative”. At Cyclooxygenase-1, the Cox1 activity result is reported as “Negative”.
Consider `CC/C=C\C/C=C\C/C=C\CCCCCCCC(=O)OCC` [Ethyl linolenate], for which, at Cyclooxygenase-2, the Cox2 activity result is on record as “Negative”. Also, the IC50 was more than 300 µM at Cyclooxygenase-2 (setting [3]), more than 30 µM at 5-lipoxygenase (setting [4]) and more than 300 µM at Cyclooxygenase-1 (setting [2]). The 5-Lipo activity result at 5-lipoxygenase is “Negative”. For the same molecule, on Cyclooxygenase-1, the Cox1 activity result is recorded as “Negative”.
With `CC(C)NC[C@H](O)COc1cccc2ccccc12` [L-propranolol], in the assay with smooth muscle, the “effect on relaxant effect” value is listed as “potentiated”.
Take `CCCCCCCCCCCCCC(=O)O` [Myristic Acid]: the Cox2 activity entry at Cyclooxygenase-2 is “Negative”. Besides, the IC50 at Cyclooxygenase-2 (setting [3]) was more than 300 µM; against 5-lipoxygenase it was more than 30 µM; on Cyclooxygenase-1 (setting [2]), more than 300 µM. The 5-Lipo activity result on 5-lipoxygenase is “Negative”. Also, the Cox1 activity result at Cyclooxygenase-1 is “Negative”.
In the case of `CCCCCCCCCCCCCC(=O)OCC` [Myristic Ester, ethyl myristate], the Cox2 activity result at Cyclooxygenase-2 is “Negative”. Besides, the 5-Lipo activity entry on 5-lipoxygenase is listed as “Negative”. The Cox1 activity entry on Cyclooxygenase-1 was “Negative”.
As to `CCCCCCCC/C=C\CCCCCCCC(=O)O` [Oleic Acid], the Cox2 activity result on Cyclooxygenase-2 is reported as “Negative”. Besides, the figures for the IC50 on Cyclooxygenase-2, on 5-lipoxygenase (setting [4]) and at Cyclooxygenase-1 (setting [2]) were more than 300 µM, more than 30 µM and more than 300 µM, respectively. Moreover, the 5-Lipo activity result on 5-lipoxygenase was “Negative”. Besides, on Cyclooxygenase-1, the Cox1 activity result is recorded as “Negative”.
In the case of `CCCCCCCCCCCCCCCC(=O)O` [Palmitic Acid], the Cox2 activity entry on Cyclooxygenase-2 is on record as “Negative”. Also, the IC50 on Cyclooxygenase-2 (setting [3]) is more than 300 µM; at 5-lipoxygenase (setting [4]), more than 30 µM; at Cyclooxygenase-1 (setting [2]), more than 300 µM. Besides, the 5-Lipo activity entry at 5-lipoxygenase is reported as “Negative”. At Cyclooxygenase-1, the Cox1 activity result is on record as “Negative”.
Turning to `C/C(=C\CO)CCC[C@H](C)CCC[C@H](C)CCCC(C)C` [Phytol], the “% Inh, individual experiment” value in assay [1] (1.00E-04 M) was 87.0% and 64% and 97% and 8.0% and 31% and 29% and 33%; in assay [1] (1.00E-05 M), 0.0% and 76% and 10% and 4.0% and 26% and 38% and 41%; in assay [1] (1.00E-06 M), 82.0% and 88% and 81% and 31% and 25% and 3.0% and 7.0%; in assay [1] (3.00E-05 M), 89.0% and 90% and 32% and 25% and 9.0% and 20% and 21%; in assay [1] (3.00E-06 M) it was 65% and 0.0% and 9.0% and 73%; in assay [1] (3.00E-07 M), 14.0% and 2.0% and 0.0%. In addition, the “% Inh, Mean” value turned out to be 32.0% in assay [1] (1.00E-05 M, SE 10.1); 31.0% in assay [1] (1.00E-06 M, SE 14.12); 28.5% in assay [1] (3.00E-05 M, SE 12.8); 9.0% in assay [1] (3.00E-06 M, SE 12.5); 2.0% in assay [1] (3.00E-07 M, SE 4.3). In addition, the IC50 in assay [1] (Table 4, marker compounds, read-out: Androgen Receptor IC50 (Table 4)) came to 10 µM; in assay [1] (read-out: androgen receptor assay IC50) it was 10 µM. This molecule showed an inhibition at 10 µM in assay [1] (at 10 μM) of 50%.
Consider `CC(C)NC[C@@H](O)COc1cccc2ccccc12` [R-propranolol], for which the “effect on relaxant effect” value in the assay on smooth muscle was “inactive”.
With `NCCCC(N)(C(=O)O)C(F)F` (stereo not shown) [a-difluoromethyl-ornithine], in the assay with smooth muscle, the “effect on relaxant effect” value is on record as “not modified”.
As to `O=C1CCN(c2ccccc2)N1` [phenidone, reference compound], the IC50 at 5-lipoxygenase (reference compound, read-out: IC50, reference compounds, 5-lipoxygenase) was determined as 30 µM.
For the molecule `CC[C@H](CC[C@@H](C)[C@H]1CC[C@H]2[C@@H]3CC=C4C[C@@H](O)CC[C@]4(C)[C@H]3CC[C@]12C)C(C)C` [β-sitosterol], the IC50 was more than 300 µM at Cyclooxygenase-2, more than 30 µM at 5-lipoxygenase and more than 300 µM at Cyclooxygenase-1.

What is called IC50 is the midpoint of a concentration-inhibition curve. One may read the inhibition as the relative decrease from the control value, in per cent.
